This passage reports EC50 results from patent publication US20200055839A1 (priority 2017, published 2020).

pEC50: −log10 of the molar value.

The first test concerns NL-RLuc virus. Nature of the test: Inhibition of HIV replication (NL-RLuc virus, luciferase readout in MT-2 cells). The format is cell-based. The conditions noted are these: Human immunodeficiency virus 1, MT2, 120 h, MT-2 cells infected with NL-RLuc virus, 5 days of incubation, 10% FBS, at least 2 experiments. The method, boiled down: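 MT-2 cells infected with NL4-3-derived virus carrying Renilla luciferase in place of part of nef, grown 5 days with serial compound dilutions in RPMI 1640/10% FBS. Virus growth read as luciferase expression. EC50 from median effect equation, at least 2 experiments.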
In general, pEC50 refers to the EC50 on a negative log10 scale, so that one unit is a factor of ten. As to `Cc1nc(Nc2ccc(F)cn2)c(-c2ccc(OCCc3ccc(F)cc3)cc2)c(N2CCC(C)(C)CC2)c1[C@H](OC(C)(C)C)C(=O)O` [Example 83, (S)-2-(tert-Butoxy)-2-(4-(4,4-dimethylpiperidin-1-yl)-5-(4-(4-fluorophenethoxy)phenyl)-6-((5-fluoropyridin-2-yl)amino)-2-methylpyridin-3-yl)acetic acid], the pEC50 is 8.30. Turning to `Cc1ccc(Nc2nc(C)c([C@H](OC(C)(C)C)C(=O)O)c(N3CCC(C)(C)CC3)c2-c2ccc(OCCc3ccc(F)cc3)cc2)c(C)n1` [Example 85, (S)-2-(tert-Butoxy)-2-(4-(4,4-dimethylpiperidin-1-yl)-6-((2,6-dimethylpyridin-3-yl)amino)-5-(4-(4-fluorophenethoxy)phenyl)-2-methylpyridin-3-yl)acetic acid], the negative logarithm of the EC50 (pEC50) was 8.52. On the same count and under the same terms, to `Cc1ccncc1Nc1nc(C)c([C@H](OC(C)(C)C)C(=O)O)c(N2CCC(C)(C)CC2)c1-c1ccc(OCCc2ccc(F)cc2)cc1` [Example 86, (S)-2-(tert-Butoxy)-2-(4-(4,4-dimethylpiperidin-1-yl)-5-(4-(4-fluorophenethoxy)phenyl)-2-methyl-6-((4-methylpyridin-3-yl)amino)pyridin-3-yl)acetic acid] belongs 8.52. The same measure, in the same setting: to `Cc1nc(Nc2cnn(C)c2)c(-c2ccc(OCCc3ccc(F)cc3)cc2)c(N2CCC(C)(C)CC2)c1[C@H](OC(C)(C)C)C(=O)O` [Example 87, (S)-2-(tert-Butoxy)-2-(4-(4,4-dimethylpiperidin-1-yl)-5-(4-(4-fluorophenethoxy)phenyl)-2-methyl-6-((1-methyl-H-pyrazol-4-yl)amino)pyridin-3-yl)acetic acid] belongs 8.70; to `Cc1nc(Nc2ccncn2)c(-c2ccc(OCCc3ccc(F)cc3)cc2)c(N2CCC(C)(C)CC2)c1[C@H](OC(C)(C)C)C(=O)O` [Example 88, (S)-2-(tert-Butoxy)-2-(4-(4,4-dimethylpiperidin-1-yl)-5-(4-(4-fluorophenethoxy)phenyl)-2-methyl-6-(pyrimidin-4-ylamino)pyridin-3-yl)acetic acid], 9.30; to `Cc1nc(Nc2cccc(F)n2)c(-c2ccc(OCCc3ccc(F)cc3)cc2)c(N2CCC(C)(C)CC2)c1[C@H](OC(C)(C)C)C(=O)O` [Example 89, (S)-2-(tert-Butoxy)-2-(4-(4,4-dimethylpiperidin-1-yl)-5-(4-(4-fluorophenethoxy)phenyl)-6-((6-fluoropyridin-2-yl)amino)-2-methylpyridin-3-yl)acetic acid], 7.89. Molecule `Cc1nc(Nc2cccnc2F)c(-c2ccc(OCCc3ccc(F)cc3)cc2)c(N2CCC(C)(C)CC2)c1[C@H](OC(C)(C)C)C(=O)O` [Example 90, (S)-2-(tert-Butoxy)-2-(4-(4,4-dimethylpiperidin-1-yl)-5-(4-(4-fluorophenethoxy)phenyl)-6-((2-fluoropyridin-3-yl)amino)-2-methylpyridin-3-yl)acetic acid] gave a pEC50 of 8.30. This pEC50 lies 0.41 log units higher than the previous one. The molecule `Cc1nc(NCCCC2CCCCC2)c(-c2ccc(OCCc3ccc(F)cc3)cc2)c(N2CCC(C)(C)CC2)c1[C@H](OC(C)(C)C)C(=O)O` [Example 91, (S)-2-(tert-Butoxy)-2-(6-((3-cyclohexylpropyl)amino)-4-(4,4-dimethylpiperidin-1-yl)-5-(4-(4-fluorophenethoxy)phenyl)-2-methylpyridin-3-yl)acetic acid] showed a pEC50 of 7.14. The same measure, in the same setting: to `Cc1nc(NCc2cccnc2)c(-c2ccc(OCCc3ccc(F)cc3)cc2)c(N2CCC(C)(C)CC2)c1[C@H](OC(C)(C)C)C(=O)O` [Example 92, (S)-2-(tert-Butoxy)-2-(4-(4,4-dimethylpiperidin-1-yl)-5-(4-(4-fluorophenethoxy)phenyl)-2-methyl-6-((pyridin-3-ylmethyl)amino)pyridin-3-yl)acetic acid] belongs 8.40; to `Cc1nc(Nc2ccncc2F)c(-c2ccc(OCCc3ccc(F)cc3)cc2)c(N2CCC(C)(C)CC2)c1[C@H](OC(C)(C)C)C(=O)O` [Example 93, (S)-2-(tert-Butoxy)-2-(4-(4,4-dimethylpiperidin-1-yl)-5-(4-(4-fluorophenethoxy)phenyl)-6-((3-fluoropyridin-4-yl)amino)-2-methylpyridin-3-yl)acetic acid], 7.92; to `Cc1ncccc1Nc1nc(C)c([C@H](OC(C)(C)C)C(=O)O)c(N2CCC(C)(C)CC2)c1-c1ccc(OCCc2ccc(F)cc2)cc1` [Example 94, (S)-2-(tert-Butoxy)-2-(4-(4,4-dimethylpiperidin-1-yl)-5-(4-(4-fluorophenethoxy)phenyl)-2-methyl-6-((2-methylpyridin-3-yl)amino)pyridin-3-yl)acetic acid], 8.22. In turn, `Cc1nc(NCc2ccccn2)c(-c2ccc(OCCc3ccc(F)cc3)cc2)c(N2CCC(C)(C)CC2)c1[C@H](OC(C)(C)C)C(=O)O` [Example 97, (S)-2-(tert-Butoxy)-2-(4-(4,4-dimethylpiperidin-1-yl)-5-(4-(4-fluorophenethoxy)phenyl)-2-methyl-6-((pyridin-2-ylmethyl)amino)pyridin-3-yl)acetic acid] gave a pEC50 of 8.30. On the same count and under the same terms, to `Cc1nc(N(C)CCCN(C)C)c(-c2ccc(OCCc3ccc(F)cc3)cc2)c(N2CCC(C)(C)CC2)c1[C@H](OC(C)(C)C)C(=O)O` [Example 98, (S)-2-(tert-Butoxy)-2-(6-((3-(dimethylamino)propyl)(methyl)amino)-4-(4,4-dimethylpiperidin-1-yl)-5-(4-(4-fluorophenethoxy)phenyl)-2-methylpyridin-3-yl)acetic acid] belongs 8.70; to `Cc1nc(NC2CCN(S(C)(=O)=O)CC2)c(-c2ccc(OCCc3ccc(F)cc3)cc2)c(N2CCC(C)(C)CC2)c1[C@H](OC(C)(C)C)C(=O)O` [Example 99, (S)-2-(tert-Butoxy)-2-(4-(4,4-dimethylpiperidin-1-yl)-5-(4-(4-fluorophenethoxy)phenyl)-2-methyl-6-((1-(methylsulfonyl)piperidin-4-yl)amino)pyridin-3-yl)acetic acid], 9.22; to `CC(=O)N1CCC(Nc2nc(C)c([C@H](OC(C)(C)C)C(=O)O)c(N3CCC(C)(C)CC3)c2-c2ccc(OCCc3ccc(F)cc3)cc2)CC1` [Example 100, (S)-2-(6-((1-Acetylpiperidin-4-yl)amino)-4-(4,4-dimethylpiperidin-1-yl)-5-(4-(4-fluorophenethoxy)phenyl)-2-methylpyridin-3-yl)-2-(tert-butoxy)acetic acid], 9.30.

Still in this test, the particulars now being: MT-2 cells infected with NL-RLuc virus, 5 days of incubation, 10% FBS, at least 2 experiments.
For the molecule `Cc1nc(Nc2ccnc(F)c2)c(-c2ccc(OCCc3ccc(F)cc3)cc2)c(N2CCC(C)(C)CC2)c1[C@H](OC(C)(C)C)C(=O)O` [Example 95, (S)-2-(tert-Butoxy)-2-(4-(4,4-dimethylpiperidin-1-yl)-5-(4-(4-fluorophenethoxy)phenyl)-6-((2-fluoropyridin-4-yl)amino)-2-methylpyridin-3-yl)acetic acid], the pEC50 is 8.10. Still for that read-out and setting: to `Cc1nc(Nc2ccnc(F)c2)c(-c2ccc(OCCc3ccc(F)cc3)cc2)c(N2CCC(C)(C)CC2)c1[C@H](OC(C)(C)C)C(=O)O` [Example 96, (S)-2-(tert-Butoxy)-2-(4-(4,4-dimethylpiperidin-1-yl)-5-(4-(4-fluorophenethoxy)phenyl)-6-((2-fluoropyridin-4-yl)amino)-2-methylpyridin-3-yl)acetic acid] belongs 7.68.
